According to publication PMC8208304 (2021):
Blank lines part the entries; values can stand above or below the compound they belong to.

Tests used:
[1] = test system: S1 + S2 (split ATP aptamer / split G-quadruplex receptor) (DNA, aptamer, internal C12 spacer (iSpC12) after position 12 of strand 1 and after position 16 of strand 2) TGGGTGGGTTTTTTTACCTGGGGGAGTAT/TGCGGAGGAAGGTTTTTTTAGGGCGGGT; test: G4-hemin peroxidase activity (Amplex Red) in LUVs; conditions: ATP 0-1.0 mM; hemin 4 μM; 100 mM Tris-HCl pH 7.0; functional readout
[2] = test system: S1 + S2 (split ATP aptamer / split G-quadruplex receptor) (DNA, aptamer, internal C12 spacer (iSpC12) after position 12 of strand 1 and after position 16 of strand 2) TGGGTGGGTTTTTTTACCTGGGGGAGTAT/TGCGGAGGAAGGTTTTTTTAGGGCGGGT; test: ThT fluorescence enhancement at 504 nm; conditions: 2.2-fold with 1.0 mM ATP; ThT 20 μM; 1.0 μM strands; 100 mM Tris-HCl pH 7.4
[3] = test system: S1 + S2 (split ATP aptamer / split G-quadruplex receptor) (DNA, aptamer, internal C12 spacer (iSpC12) after position 12 of strand 1 and after position 16 of strand 2) TGGGTGGGTTTTTTTACCTGGGGGAGTAT/TGCGGAGGAAGGTTTTTTTAGGGCGGGT; test: G4-hemin Amplex Red peroxidase fluorescence in LUVs; conditions: 100 mM Tris-HCl pH 7.0; functional readout; used instead of ATP; concentration not given
[4] = test system: S1 + S2 (split ATP aptamer / split G-quadruplex receptor) (DNA, aptamer, internal C12 spacer (iSpC12) after position 12 of strand 1 and after position 16 of strand 2) TGGGTGGGTTTTTTTACCTGGGGGAGTAT/TGCGGAGGAAGGTTTTTTTAGGGCGGGT; test: SYBR Green I fluorescence melting; conditions: derived from two Tm (46.2 to 55.0 °C); 1.0 mM ATP; 1.0 μM strands; 100 mM Tris-HCl pH 7.4
[5] = test system: FAM-S1 + TAMRA-S2 (DNA, aptamer, internal C12 spacer (iSpC12) after position 11 of strand 1 and after position 16 of strand 2) TGGGTGGGTTTTTTACCTGGGGGAGTAT/TGCGGAGGAAGGTTTTTTTAGGGCGGGT; test: FRET in LUVs; conditions: ATP 0-1.0 mM; FAM-S1:TAMRA-S2 1:5; Fa/Fd 0.4 to 0.5

binding [1]: yes
Structure (SMILES): C=CC1=C(C)C2=Cc3c(C=C)c(C)c4[n]3[Fe]([Cl])[n]3c(c(C)c(CCC(=O)O)c3=CC3=NC(=C4)C(C)=C3CCC(=O)O)=CC1=N2

binding [2]: yes
Structure (SMILES): Cc1ccc2c(c1)sc(-c1ccc(N(C)C)cc1)[n+]2C

binding [3]: no
Structure (SMILES): Nc1ccn([C@@H]2O[C@H](CO)[C@@H](O)[C@H]2O)c(=O)n1

binding [3]: no
Structure (SMILES): Nc1nc2c(ncn2[C@@H]2O[C@H](CO)[C@@H](O)[C@H]2O)c(=O)[nH]1

ΔTm (melting temperature shift) [4]: 8.8 °C
binding [5]: yes
Structure (SMILES): Nc1ncnc2c1ncn2[C@@H]1O[C@H](COP(=O)(O)OP(=O)(O)OP(=O)(O)O)[C@@H](O)[C@H]1O

binding [3]: no
Structure (SMILES): O=c1ccn([C@@H]2O[C@H](CO)[C@@H](O)[C@H]2O)c(=O)[nH]1
